Results as given in PMC8131106 (eLife, 2021).
Substitutions are numbered along the chain they refer to. Numbers in names are those of the source.

Key:
LeuT [1] = target: T1, LeuT (Aquifex aeolicus, UniProt O67854, R375A); assay: X-ray crystal structure, […] A; assay type: binding; settings: Na+ bound, outward-facing occluded
T1 construct: gene snf; pET16b, C-terminal 8xHis tag removed with thrombin, expressed in E. coli C41/C43(DE3), purified in DDM then OG; Cys pairs with spin labels for DEER

LeuT [2] = target: T2, LeuT (Aquifex aeolicus, UniProt O67854); assay: X-ray crystal structure, […] A; assay type: binding; settings: Na+ bound, outward-facing occluded
T2 construct: gene snf; pET16b, C-terminal 8xHis tag removed with thrombin, expressed in E. coli C41/C43(DE3), purified in DDM then OG; Cys pairs with spin labels for DEER

LeuT [3] = target: T3, LeuT (Aquifex aeolicus, UniProt O67854, R375D); assay: X-ray crystal structure, […] A; assay type: binding; settings: Na+ bound, outward-facing occluded
T3 construct: gene snf; pET16b, C-terminal 8xHis tag removed with thrombin, expressed in E. coli C41/C43(DE3), purified in DDM then OG; Cys pairs with spin labels for DEER

LeuT [4] = target: T4, LeuT (Aquifex aeolicus, UniProt O67854, R375D, form not given); assay: DEER EPR distance distributions; assay type: binding; settings: […] NaCl, fourfold molar excess of Leu; each spin-label pair in its own construct (pair also printed as […])
T4 construct: gene snf; pET16b, C-terminal 8xHis tag removed with thrombin, expressed in E. coli C41/C43(DE3), purified in DDM then OG; Cys pairs with spin labels for DEER

LeuT [5] = target: T5, LeuT (Aquifex aeolicus, UniProt O67854, H7C/R86C/A309C, form not given); assay: DEER EPR distance distributions; assay type: binding; settings: […] NaCl, fourfold molar excess of Leu; each spin-label pair in its own construct (pair also printed as […])
T5 construct: gene snf; pET16b, C-terminal 8xHis tag removed with thrombin, expressed in E. coli C41/C43(DE3), purified in DDM then OG; Cys pairs with spin labels for DEER

dDAT = target: T6, dDAT (Drosophila melanogaster, UniProt Q7K4Y6); settings: […] min, room temperature, labelled compound
T6 construct: gene DAT

[6] = substrate: NCCc1ccc(O)c(O)c1; assay: cells, lysate or membranes; settings: pH […]-7.[…] min, […] DA, labelled compound

T6 sequence (Q7K4Y6 whole entry): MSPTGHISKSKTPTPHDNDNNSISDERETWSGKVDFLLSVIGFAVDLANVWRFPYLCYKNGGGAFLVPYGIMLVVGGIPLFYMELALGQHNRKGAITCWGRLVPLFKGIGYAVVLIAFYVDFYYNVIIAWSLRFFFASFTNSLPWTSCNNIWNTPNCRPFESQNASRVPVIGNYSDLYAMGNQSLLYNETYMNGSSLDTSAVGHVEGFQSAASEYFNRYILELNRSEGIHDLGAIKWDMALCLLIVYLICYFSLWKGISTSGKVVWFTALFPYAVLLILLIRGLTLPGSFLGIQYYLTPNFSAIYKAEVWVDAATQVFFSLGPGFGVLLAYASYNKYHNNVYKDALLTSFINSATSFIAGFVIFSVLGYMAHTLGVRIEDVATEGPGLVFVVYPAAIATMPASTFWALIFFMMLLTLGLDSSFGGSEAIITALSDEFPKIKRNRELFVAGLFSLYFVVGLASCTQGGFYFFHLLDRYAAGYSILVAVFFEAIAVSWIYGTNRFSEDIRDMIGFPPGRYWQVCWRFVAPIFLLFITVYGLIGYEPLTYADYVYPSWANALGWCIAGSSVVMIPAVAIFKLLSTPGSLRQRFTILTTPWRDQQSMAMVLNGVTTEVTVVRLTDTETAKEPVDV

C[C@H](N)C(=O)O [L-Ala]
X-ray crystal structure, 2.1 A (LeuT [1]): LeuT WT, LeuT R375A, and LeuT R375D solved in the L-Ala and Na^+ bound OO conformation
X-ray crystal structure, 2.1 A (LeuT [2]): L-Ala, Na1, and Na2 (purple spheres) could be modeled into their respective binding sites
X-ray crystal structure, 2.6 A (LeuT [3]): LeuT WT, LeuT R375A, and LeuT R375D solved in the L-Ala and Na^+ bound OO conformation

CC(C)C[C@H](N)C(=O)O [Leu]
DEER EPR distance distributions (LeuT [4]): Na^+/Leu resets the IC gate to the IO conformation
DEER EPR distance distributions (LeuT [5]): Leu binding to Na^+-bound LeuT restores the conformational preference to the OO form

NCCc1ccc(O)c(O)c1 [dopamine]
[3H]DA uptake, intact fly brains (dDAT): uptake of [^3H]DA in hDAT WT Drosophila brains was not significantly different from that measured in dDAT

B1: hDAT (Homo sapiens) (protein)
chain: MSKSKCSVGLMSSVVAPAKEPNAVGPKEVELILVKEQNGVQLTSSTLTNPRQSPVEAQDRETWGKKIDFLLSVIGFAVDLANVWRFPYLCYKNGGGAFLVPYLLFMVIAGMPLFYMELALGQFNREGAAGVWKICPILKGVGFTVILISLYVGFFYNVIIAWALHYLFSSFTTELPWIHCNNSWNSPNCSDAHPGDSSGDSSGLNDTFGTTPAAEYFERGVLHLHQSHGIDDLGPPRWQLTACLVLVIVLLYFSLWKGVKTSGKVVWITATMPYVVLTALLLRGVTLPGAIDGIRAYLSVDFYRLCEASVWIDAATQVCFSLGVGFGVLIAFSSYNKFTNNCYRDAIVTTSINSLTSFSSGFVVFSFLGYMAQKHSVPIGDVAKDGPGLIFIIYPEAIATLPLSSAWAVVFFIMLLTLGIDSAMGGMESVITGLIDEFQLLHRHRELFTLFIVLATFLLSLFCVTNGGIYVFTLLDHFAAGTSILFGVLIEAIGVAWFYGVGQFSDDIQQMTGQRPSLYWRLCWKLVSPCFLLFVVVVSIVTFRPPHYGAYIFPDWANALGWVIATSSMAMVPIYAAYKFCSLPGSFREKLAYAIAPEKDRELVDRGEVRQFTLRHWLKV
Km [6]: 5.7 ± 1.4 µM

B2: hDAT (Homo sapiens; R445C) (protein)
chain: B1 chain with R445C
Km [6]: 0.10 ± 0.07 µM
